Measured values as given in patent publication US20130344166A1, “TOPICAL MIXTURE AND METHOD FOR DERMAL APPLICATION TO REMOVE EXCESS IRON AND OTHER HEAVY METALS FROM CELLULAR TISSUE” (priority 2012, published 2013).

What was measured:
[1] = test system: excess Iron within the cells; test: Tests of trivalent Chromium on excess Iron within the cells of humans; format: in vivo; settings: absorbed into the bloodstream and delivered to the individual cells of humans
Text: Also included in the present invention is trivalent Chromium. As currently contemplated, the Chromium will be in the form of Chromium Picolinate, Chromium Polynicotinate, or Chromium Chloride. The essential element is trivalent Chromium. The choice of Chromium Picolinate, Chromium Polynicotinate, or Chromium Chloride has been made by the inventors because they are readily, commercially available in most health food stores, pharmacies, and other sources of dietary supplements. […] This is a desirable treatment for people suffering from Diabetes and there are currently studies, which indicate that “Iron Loading” can possibly be attached to the occurrence of cancer. A possible alternative or compliment to the Chromium of the present invention is Vanadium in the form of Vanadyl Sulfate. A combination of both Chromium and Vanadium compounds have been utilized in some tests with desirable results.

[2] = Blood sugar level of a patient after application of the topical mixture to the skin; format: in vivo, human; settings: presence of L-Histidine in the mixture
Text: The present invention is best practiced by application of the trivalent Chromium composition at least twice daily. Preferably the application will be made before sleep and early in the morning ideally before exercise. Although the present invention may be applied to the entire body it is recommended it be applied to the legs and groin area where easy access to a large number of blood vessels can be achieved. Additionally, the legs and groin area contained some of the most exercised muscles in the human body. An alternative carrier base can be achieved through infusion of the trivalent Chromium and other elements into a bar of soap so as to achieve even distribution over the entire body. FIGS. 1 and 2 and the charts below show the blood sugar level of a patient utilizing the present invention in accordance with the formulation set above. The blood sugar level can be seen to drop dramatically after application of the present invention to the surface of the skin.

Compound	levels of excess Iron within the cells [1]	levels of blood sugar in patients [2]
trivalent Chromium	reduces the levels of excess Iron within the cells	–
N[C@@H](Cc1c[nH]cn1)C(=O)O [L-Histidine]	–	beneficial to lowering the levels of blood sugar
